Test results taken from PubChem BioAssay AID256 (DTP/NCI, 2004).
“And” between values parts separate entries of the source, which are not always exact repeats. Identical values can stand only once. Inconclusive results and toxic doses are left out.

Test system: CD2F1 mice, L1210 leukemia ip, survival T/C
Assay: NCI In Vivo Anticancer Drug Screen. Data for tumor model L1210 Leukemia (intraperitoneal) in CD2F1 (CDF1) mice
Conditions: endpoint: mean survival time, higher = longer survival
Outline: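 Transplantable tumor in mice; compound-treated vs vehicle-treated groups. Read-out = treated/control ratio of the measured endpoint.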

[1] = dose: 100.0 mg/kg/injection, schedule: Q01DX001 (ip), vehicle: saline with Tween-80
[2] = dose: 200.0 mg/kg/injection, schedule: Q01DX001 (ip), vehicle: saline with Tween-80
[3] = dose: 400.0 mg/kg/injection, schedule: Q01DX001 (ip), vehicle: saline with Tween-80
[4] = dose: 100.0 mg/kg/injection, schedule: Q01DX009 (ip), vehicle: saline with Tween-80
[5] = dose: 100.0 mg/kg/injection, schedule: Q04DX002 (ip), vehicle: saline with Tween-80
[6] = dose: 100.0 mg/kg/injection, schedule: Q04DX003 (ip), vehicle: saline with Tween-80
[7] = dose: 200.0 mg/kg/injection, schedule: Q01DX009 (ip), vehicle: saline with Tween-80
[8] = dose: 200.0 mg/kg/injection, schedule: Q04DX002 (ip), vehicle: saline with Tween-80
[9] = dose: 200.0 mg/kg/injection, schedule: Q04DX003 (ip), vehicle: saline with Tween-80
[10] = dose: 400.0 mg/kg/injection, schedule: Q01DX009 (ip), vehicle: saline with Tween-80
[11] = dose: 400.0 mg/kg/injection, schedule: Q04DX003 (ip), vehicle: saline with Tween-80

In the case of O=C(NC(=S)c1ccccc1)Nc1ccc(Cl)cc1, the T/C [1] is reported as 90 % of control, the T/C [2] is reported as 94 % of control and the T/C [3] is reported as 94 % of control.

In the case of CCOC(=O)C1=C(C)NC(C)=C(C(=O)OCC)C1c1ccccn1, the T/C (dose: 50.0 mg/kg/injection, schedule: Q01DX009 (ip), vehicle: Klucel (hydroxypropylcellulose) (HPC)) is reported as 94 % of control, the T/C (dose: 100.0 mg/kg/injection, schedule: Q01DX009 (ip), vehicle: Klucel (hydroxypropylcellulose) (HPC)) is reported as 91 % of control and the T/C (dose: 200.0 mg/kg/injection, schedule: Q01DX009 (ip), vehicle: Klucel (hydroxypropylcellulose) (HPC)) is reported as 89 % of control.

O=C(COc1ccccc1)NC(=S)Nc1nccs1 was tested, and the T/C (dose: 25.0 mg/kg/injection, schedule: Q04DX003 (ip), vehicle: saline with Tween-80) was 87 % of control, the T/C (dose: 50.0 mg/kg/injection, schedule: Q04DX003 (ip), vehicle: saline with Tween-80) was 88 % of control and 103 % of control and the T/C [1] was 97 % of control. The T/C [4] was 93 % of control and 102 % of control, the T/C [5] was 98 % of control and the T/C [6] was 88 % of control and 97 % of control. The T/C [2] was 95 % of control, the T/C [7] was 93 % of control and 104 % of control and the T/C [8] was 102 % of control. For the same compound, the T/C [9] was 101 % of control and 108 % of control, the T/C [3] was 107 % of control and the T/C [10] was 111 % of control.

With N#CC(c1cccc([N+](=O)[O-])c1)C(CC(=O)c1ccccc1)c1ccccc1 (stereo unspecified) the T/C [5] was 95 % of control, the T/C [8] was 95 % of control and the T/C (dose: 400.0 mg/kg/injection, schedule: Q04DX002 (ip), vehicle: saline with Tween-80) was 102 % of control.

In the case of OC(c1ccccc1)(c1ccccc1)c1ccncc1, the T/C (dose: 12.5 mg/kg/injection, schedule: Q01DX009 (ip), vehicle: saline with Tween-80) is reported as 91 % of control, the T/C (dose: 25.0 mg/kg/injection, schedule: Q01DX009 (ip), vehicle: saline with Tween-80) is reported as 87 % of control and the T/C (dose: 50.0 mg/kg/injection, schedule: Q01DX009 (ip), vehicle: saline with Tween-80) is reported as 91 % of control.

In the case of CN(C)c1ccc(/C=N/NC(=O)CNC(=O)c2ccccc2)cc1, the T/C [4] is reported as 95 % of control, the T/C [7] is reported as 89 % of control and the T/C [10] is reported as 89 % of control.

For NC1=NC(c2ccccc2)N(c2ccc(Cl)cc2)C(N)=N1 (stereo unspecified), the T/C [1] was 93 % of control and the T/C [2] was 95 % of control.

CN(C)Cc1cc(C(C)(C)C)cc(C2CCCCC2)c1O was tested, and the T/C [6] was 100 % of control, the T/C [9] was 100 % of control and the T/C [11] was 103 % of control.

CC(=O)/C(=N/O)c1ccccc1 was tested, and the T/C (dose: 75.0 mg/kg/injection, schedule: Q01DX009 (ip), vehicle: saline with Tween-80) was 102 % of control, the T/C [6] was 102 % of control and the T/C (dose: 150.0 mg/kg/injection, schedule: Q01DX009 (ip), vehicle: saline with Tween-80) was 94 % of control. For the same compound, the T/C [9] was 102 % of control and the T/C [11] was 94 % of control.

Cc1ccc(S(=O)(=O)/C=C(/SC#N)C2CCCCC2)cc1 was tested, and the T/C [4] was 96 % of control, the T/C [7] was 100 % of control and the T/C [10] was 102 % of control.

With O=C1OC(=O)C2C1OC1C(=O)OC(=O)C12 (stereo unspecified) the T/C (dose: 6.25 mg/kg/injection, schedule: Q04DX002 (ip), vehicle: saline) was 103 % of control, the T/C (dose: 12.5 mg/kg/injection, schedule: Q04DX002 (ip), vehicle: saline) was 106 % of control and the T/C (dose: 25.0 mg/kg/injection, schedule: Q04DX002 (ip), vehicle: saline) was 95 % of control.

In the case of Nc1ccn([C@H]2C[C@@H](CO)[C@H](O)[C@@H]2O)c(=O)n1, the T/C (dose: 22.0 mg/kg/injection, schedule: Q03HX024 (ip), vehicle: saline) is reported as 159 % of control, the T/C (dose: 33.0 mg/kg/injection, schedule: Q03HX024 (ip), vehicle: saline) is reported as 164 % of control and the T/C (dose: 50.0 mg/kg/injection, schedule: Q03HX024 (ip), vehicle: saline) is reported as 169 % of control. The T/C (dose: 75.0 mg/kg/injection, schedule: Q04HX024 (ip), vehicle: saline) was 176 % of control, the T/C (dose: 100.0 mg/kg/injection, schedule: Q04HX024 (ip), vehicle: saline) was 177 % of control and the T/C (dose: 150.0 mg/kg/injection, schedule: Q01DX009 (ip), vehicle: saline) was 150 % of control. For the same compound, the T/C (dose: 200.0 mg/kg/injection, schedule: Q01DX009 (ip), vehicle: saline) was 182 % of control and the T/C (dose: 450.0 mg/kg/injection, schedule: Q01DX009 (ip), vehicle: saline) was 166 % of control.

CCCCCCCCCCCCCCCC(=O)N(CCCN(C)C)CCCN(CCCN(C)C)C(=O)CCCCCCCCCCCCCCC was tested, and the T/C (dose: 1.56 mg/kg/injection, schedule: Q01DX009 (ip), vehicle: water) was 101 % of control, the T/C (dose: 3.13 mg/kg/injection, schedule: Q01DX009 (ip), vehicle: water) was 98 % of control and the T/C (dose: 6.25 mg/kg/injection, schedule: Q01DX009 (ip), vehicle: water) was 95 % of control. The T/C (dose: 12.5 mg/kg/injection, schedule: Q01DX009 (ip), vehicle: water) was 94 % of control and 95 % of control and the T/C (dose: 25.0 mg/kg/injection, schedule: Q01DX009 (ip), vehicle: water) was 95 % of control.
